Data published in PMC6385203, “Mutations in the palm domain disrupt modulation of acid-sensing ion channel 1a currents by neuropeptides” (Scientific Reports, 2019).
Peptide text beside a SMILES is read from it.

Target: T1, WT ASIC1a (Homo sapiens, UniProt P78348)
T1 construct: expressed in transfected cells; host or cells: Xenopus laevis oocytes injected with cRNA
T1 sequence (P78348 1-528): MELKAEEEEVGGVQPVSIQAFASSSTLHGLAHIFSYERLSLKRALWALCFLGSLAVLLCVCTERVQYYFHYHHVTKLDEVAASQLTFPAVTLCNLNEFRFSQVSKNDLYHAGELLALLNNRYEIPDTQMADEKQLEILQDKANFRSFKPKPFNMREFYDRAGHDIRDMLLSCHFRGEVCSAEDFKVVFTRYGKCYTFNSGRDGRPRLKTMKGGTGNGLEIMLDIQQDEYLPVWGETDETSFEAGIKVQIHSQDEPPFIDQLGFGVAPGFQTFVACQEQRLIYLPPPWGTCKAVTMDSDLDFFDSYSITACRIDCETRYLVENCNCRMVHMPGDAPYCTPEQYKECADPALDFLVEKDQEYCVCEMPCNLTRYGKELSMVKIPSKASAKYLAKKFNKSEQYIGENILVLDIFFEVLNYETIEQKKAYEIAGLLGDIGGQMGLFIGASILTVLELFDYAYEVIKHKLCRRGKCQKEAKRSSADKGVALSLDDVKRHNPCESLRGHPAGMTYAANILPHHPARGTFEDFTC
Experiment: Isust/Ipeak, TEVC in Xenopus oocytes, WT
Type: cell-based
Conditions: FRRFa in pH7.4 conditioning and pH5 solution, mean ± SEM, n = 7–12, read-out: EC50 for induction of sustained current (Isust/Ipeak)
Experimental: ASIC1a function was measured by two-electrode voltage-clamp after recombinant expression in Xenopus oocytes. The channels were activated by a pH5 stimulation solution from a conditioning solution of pH7.4. […] We measured the rate of FRRFa unbinding, as the disappearance of the sustained current after a 50-s incubation with 50 μM FRRFa, as 0.025 ± 0.005 s^−1 (n = 8, Fig. 2b). […] To determine the kinetics of FRRFa association on ASIC1a, we pre-applied the peptide at a concentration of 50 μM for different time periods in the conditioning solution and measured the sustained current fraction.
Human ASIC1a[43] had been subcloned into a vector for transcription that contained 5′- and 3′-untranslated regions of Xenopus β-globin mRNA[44]. Point mutations were introduced using QuikChange (Agilent, Basel, Switzerland). Mutations were verified by sequencing (Synergene Biotech, Zurich, Switzerland). Expression in Xenopus laevis oocytes was carried out as described previously. […]
Electrophysiological measurements were performed 1–2 days after cRNA injection. Ion currents were recorded using two-electrode voltage-clamp at a holding potential of −60 mV with a Dagan TEV-200 amplifier (Minneapolis, MN). […] The amplitude of the sustained current was measured in the last two seconds of the pH5 perfusion. […]

## N=C(N)NCCC[C@H](NC(=O)[C@H](CCCNC(=N)N)NC(=O)[C@@H](N)Cc1ccccc1)C(=O)N[C@@H](Cc1ccccc1)C(N)=O [FRRFa, Phe-Arg-Arg-Phe-amide] (H-FRRF-NH2)
  EC50: 37 ± 15 µM
